Values quoted from earlier work in patent publication US6743821B2, “Glycerol-lactate esters for use as an energy supplement during exercise and recovery” (priority 2001, dated 2004).

Key:
isolated working hearts = details: concentrated sodium lactate added to hearts from shocked animals
[1] = blood of Wistar rats

Compound	performance of isolated working hearts (isolated working hearts)	conversion of the infused tracer in the blood [1]
CC(O)C(=O)[O-].[Na+] (centres unmarked) [sodium lactate]	significantly enhanced	–
[13CH3]C(=O)C(=O)O [[3-^13C]pyruvate]	–	quickly converted to [3-^13C]lactate
